Reference: patent publication US20130225427A1, “METHOD FOR PREDICTION OF RESPONSE TO IMMUNE MEDIATED DISEASE THERAPEUTICS” (SANFORD-BURNHAM MEDICAL RESEARCH INSTITUTE, priority 2010, published 2013)

Tests used:
Assay type in all cases: in vivo, human
APC = assay: Taqman gene expression in APC from PBMC of treated RA clinical responders; conditions: compared to initiation of the treatment
Source text: (§1) The aim of this study is to identify clusters of immune pathways characteristic of responsiveness that are specific to treatment. […] We show as summary a color coded table. We clustered individual immune functions according to cut off values identified in preliminary studies (25% change compared with baseline at active disease). The Table 1 depicts the differences for patients who are all responders and therefore otherwise clinically indistinguishable ([…]).
(§2) PBMCs from each patient were incubated for 48 hours with plate bound anti-CD3/CD28. Non-adherent cells were collected to enrich T cells by pan T-cell MACS. T cells were FACS sorted on CD4+CD127+ (TE) and CD4+CD25+CD127− (nTreg), and CD4+CD25+PD1+CD127− (PD1+ Treg). Aliquots of all sorted cells were collected for TaqMan. The remainder of the APCs and TE were cultured with isolated Treg. CFSE was added to the TE cells and cultured for a total of 4 days with anti-CD3/CD28.

Te Cells = assay: Taqman gene expression in sorted CD4+CD127+ effector T cells (TE) of treated RA clinical responders; conditions: compared to initiation of the treatment
Source text: as §1, §2

nTreg = assay: Taqman gene expression in sorted CD4+CD25+CD127− nTreg of treated RA clinical responders; conditions: compared to initiation of the treatment
Source text: as §1, §2

PD1 + Treg = assay: Taqman gene expression in sorted CD4+CD25+PD1+CD127− PD1+ Treg of treated RA clinical responders; conditions: compared to initiation of the treatment
Description: The aim of this study is to identify clusters of immune pathways characteristic of responsiveness that are specific to treatment. […] We clustered individual immune functions according to cut off values identified in preliminary studies (25% change compared with baseline at active disease).
as §2

Treg = assay: Suppression activity of Treg on CFSE-labelled TE proliferation; conditions: when clinical response is seen (FIG. 3)
Description: as §2

CN(Cc1cnc2nc(N)nc(N)c2n1)c1ccc(C(=O)N[C@@H](CCC(=O)O)C(=O)O)cc1 [MTX, methotrexate]
B7-H1 up or down regulated (APC): up regulated (cut off values identified in preliminary studies (25% change compared with baseline at active disease)) | B7-H2 up or down regulated (APC): up regulated (cut off values identified in preliminary studies (25% change compared with baseline at active disease)) | B7-H4 up or down regulated (APC): up regulated (cut off values identified in preliminary studies (25% change compared with baseline at active disease)) | FAS-L up or down regulated (APC): up regulated (cut off values identified in preliminary studies (25% change compared with baseline at active disease)) | IL-10 up or down regulated (APC): up regulated (cut off values identified in preliminary studies (25% change compared with baseline at active disease)) | INFγ up or down regulated (APC): up regulated (cut off values identified in preliminary studies (25% change compared with baseline at active disease)) | TGFβ up or down regulated (APC): up regulated (cut off values identified in preliminary studies (25% change compared with baseline at active disease)) | percent change in expression of B7-H1 (APC): +106.4% | percent change in expression of B7-H2 (APC): +98.4% | percent change in expression of B7-H4 (APC): +118.6% | percent change in expression of FAS-L (APC): +83.1% | percent change in expression of IL-10 (APC): +28.6% | percent change in expression of INFγ (APC): +219.9% | percent change in expression of TGFβ (APC): +31.1% | IL-10 up or down regulated (Te Cells): no change (cut off values identified in preliminary studies (25% change compared with baseline at active disease)) | IL-17A up or down regulated (Te Cells): no change (cut off values identified in preliminary studies (25% change compared with baseline at active disease)) | TGFβ up or down regulated (Te Cells): up regulated (cut off values identified in preliminary studies (25% change compared with baseline at active disease)) | percent change in expression of FAS-L (Te Cells): 20.5% | percent change in expression of GATA-3 (Te Cells): −21.6% | percent change in expression of ICOS (Te Cells): −7.2% | percent change in expression of IL-10 (Te Cells): +15.2% | percent change in expression of IL-17A (Te Cells): +0.3% | percent change in expression of INFγ (Te Cells): +1.7% | percent change in expression of PD-1 (Te Cells): +5.6% | percent change in expression of TGFβ (Te Cells): +150.8% | percent change in expression of TNFα (Te Cells): 2.3% | percent change in expression of Tbet (Te Cells): −17.1% | CTLA4 up or down regulated (nTreg): up regulated (cut off values identified in preliminary studies (25% change compared with baseline at active disease)) | FoxP3 up or down regulated (nTreg): up regulated (cut off values identified in preliminary studies (25% change compared with baseline at active disease)) | Granzyme B up or down regulated (nTreg): up regulated (cut off values identified in preliminary studies (25% change compared with baseline at active disease)) | INFγ up or down regulated (nTreg): up regulated (cut off values identified in preliminary studies (25% change compared with baseline at active disease)) | PD1 up or down regulated (nTreg): up regulated (cut off values identified in preliminary studies (25% change compared with baseline at active disease)) | TGFβ up or down regulated (nTreg): up regulated (cut off values identified in preliminary studies (25% change compared with baseline at active disease)) | percent change in expression of CTLA4 (nTreg): +684.0% | percent change in expression of FoxP3 (nTreg): 439.0% | percent change in expression of Granzyme B (nTreg): +393.7% | percent change in expression of INFγ (nTreg): +99.6% | percent change in expression of PD1 (nTreg): +474.2% | percent change in expression of TGFβ (nTreg): +69.3% | CTLA4 up or down regulated (PD1 + Treg): up regulated (cut off values identified in preliminary studies (25% change compared with baseline at active disease)) | FoxP3 up or down regulated (PD1 + Treg): up regulated (cut off values identified in preliminary studies (25% change compared with baseline at active disease)) | Granzyme B up or down regulated (PD1 + Treg): up regulated (cut off values identified in preliminary studies (25% change compared with baseline at active disease)) | IL-10 up or down regulated (PD1 + Treg): up regulated (cut off values identified in preliminary studies (25% change compared with baseline at active disease)) | INFγ up or down regulated (PD1 + Treg): up regulated (cut off values identified in preliminary studies (25% change compared with baseline at active disease)) | PD1 up or down regulated (PD1 + Treg): up regulated (cut off values identified in preliminary studies (25% change compared with baseline at active disease)) | Perforin up or down regulated (PD1 + Treg): up regulated (cut off values identified in preliminary studies (25% change compared with baseline at active disease)) | TGFβ up or down regulated (PD1 + Treg): up regulated (cut off values identified in preliminary studies (25% change compared with baseline at active disease)) | percent change in expression of FoxP3 (PD1 + Treg): +124.1% | percent change in expression of Granzyme B (PD1 + Treg): +213.8% | percent change in expression of IL-10 (PD1 + Treg): 168.8% | percent change in expression of INFγ (PD1 + Treg): +355.0% | percent change in expression of PD1 (PD1 + Treg): 290.3% | percent change in expression of Perforin (PD1 + Treg): +288.7% | percent change in expression of TGFβ (PD1 + Treg): +254.4% | suppressive capability of Treg to suppress effector proliferation (Treg): enhanced
